Patent publication US10195189B2, “2-phenethenyltetrahydro isoquinolines useful as anti-HIV compounds” (priority 2014, dated 2019)

Tested on: HIV-1 NL4-3 viral clone expressing Renilla luciferase
Assay: microbe, parasite or virus in culture
Assay type: cell-based
Conditions: Human immunodeficiency virus 1, NL43, MT2, 96 h
Procedure: Protocol for MT-2 Spread Assay
The present assay was used to screen candidate antiviral compounds by quantification of virus spread and production over several rounds of infection in vitro. MT-2, a HIV-1 permissive human T-cell line, was seeded in microtiter plates and was simultaneously treated with serially diluted compound and inoculated with a HIV-1 NL4-3 viral clone engineered to express Renilla luciferase in place of Net Following treatment, the culture was incubated for 96 hours. After the incubation, media was collected and used to estimate relative infectivity on the indicator cell line, TZM-bl. Additionally, viral spread was quantified by measuring luciferase activity via a commercially available luciferase substrate. In parallel, MT-2 cells were seeded and inoculated with mock virus in the presence of serially diluted compound. Compound toxicity was quantified 96 hours after treatment with AlamarBlue.
MT-2 (NIH Aids reagent program 237) cells were grown and maintained in an incubator at 37° C. with 5% CO2 using a basal medium of RPMI-1640 supplemented with 10% FBS. Cells were seeded in 100 μl at 2×10^4 cells/well in white walled 96-well microtiter plates. Candidate compounds were 3-fold serially diluted in the appropriate solvent. Solvent without compound was used as a no drug reference. Cells were inoculated at a multiplicity of 0.027 with an HIV-1 NL4-3 virus stock engineered to express Renilla luciferase in place of Net Diluted virus stock was first added to serially diluted compound. Compound and virus were delivered to cells in an equal volume (100 μl) and treated cultures were returned to the incubator for 96 hours. In parallel, plates for cytotoxicity estimates were prepared in the same way except cells were plated in clear walled 96-well microtiter plates and were mock infected.
At 96 hours post infection, 100 μl virus containing culture supernatant was collected from the treated and infected cultures and serially diluted in DMEM supplemented with 10% FBS, 1% sodium pyruvate, and 20 μg/ml DEAE dextran. One day prior, TZM-bl (ATCC PTA-5659) were cultured in basal medium of DMEM supplemented with 10% FBS and 1% sodium pyruvate and seeded at 7.5×10^3 cells/well in black walled 96-well microtiter plates. Diluted virus containing culture supernatant was transferred to TZM-bl cultures and incubated for 48 hours at 37° C. with 5% CO2. Infected TZM-bl cultures were fixed for 5 minutes with a 1% formaldehyde/0.2% gluteraldehyde/PBS solution then washed three times with PBS. Fixed cultures were incubated at 37° C. for 25 minutes with a 200 μg/ml MUG (4-Methylumbelliferyl β-D-[…])/DMEM solution. The reaction was stopped with an equal volume of 1M sodium carbonate and read at 360, 449 nm on fluorescence plate reader (Biotek).
At 96 hours post infection, 100 μl of culture supernatant was removed from the treated and infected cultures and EnduRen live cell substrate (Promega) was added at a final concentration 1.3 μg/ml. Cells were incubated for 1.5 hours at 37° C. with 5% CO2 then read on a luminescence plate reader (Biotek).
For all assays, data was imported into Accelrys Assay Explorer 3.3. In Assay Explorer, % inhibition (antiviral or cytotoxicity) was calculated using the solvent control as a reference by the following equation: 1−(SignalCompound/SignalReference). The % Inhibition and compound concentration data was fitted using the following 4-parameter logistic model (Assay Explorer model 42):
[formula] where X is compound concentration, Y is % inhibition, D is the maximum % Inhibition (constrained to 100%), C is IC50 value or inflection point, B is the hill slope, and A is the minimum % inhibition (constrained to 0%). The IC50 value is reported as the EC50 or CC50 depending on the assay endpoint. EC50 represents the effective concentration at which virus replication is inhibited by 50 percent. CC50 represents the concentration that results in the death of 50 percent of the host cells. […]

| SMILES | EC50 [nM] |
| --- | --- |
| COc1cc2c(cc1OCc1ccccc1)CCNC2/C=C/c1ccc(OC(F)(F)F)cc1C (centres unmarked) [Example AJ, (E)-6-(benzyloxy)-7-methoxy-1-(2-methyl-4-(trifluoromethoxy)styryl)-1,2,3,4-tetrahydroisoquinoline] | 2740 |
| COc1ccc(/C=C/C2NCCc3cc(OCc4ccccc4)c(OC)cc32)cc1C (centres unmarked) [EI, 6-Benzyloxy-7-methoxy-1-[(E)-2-(4-methoxy-3-methyl-phenyl)vinyl]-1,2,3,4-tetrahydroisoquinoline] | 340 |
| COc1cc(/C=C/C2NCCc3cc(OC)c(OCc4ccccc4)cc32)ccc1OCc1ccccc1 (centres unmarked) [Example S, 7-benzyloxy-1-[(E)-2-(4-benzyloxy-3-methoxy-phenyl)vinyl]-6-methoxy-1,2,3,4-tetrahydroisoquinoline] | 992 |
| COc1cc2c(cc1OCc1ccccc1)CCNC2/C=C/c1cc(OC)c(OCc2ccccc2)c(OC)c1 (centres unmarked) [AP, 6-Benzyloxy-1-[(E)-2-(4-benzyloxy-3,5-dimethoxy-phenyl)vinyl]-7-methoxy-1,2,3,4-tetrahydroisoquinoline] | 970 |
| CCCCOc1cc(/C=C/C2NCCc3cc(OCc4ccccc4)c(OC)cc32)c(C)cc1OC (centres unmarked) [BL, 6-Benzyloxy-1-[(E)-2-(5-butoxy-4-methoxy-2-methyl-phenyl)vinyl]-7-methoxy-1,2,3,4-tetrahydroisoquinoline] | 52 |
| COc1cc(F)c(/C=C/C2NCCc3cc(OCc4ccccc4)c(OC)cc32)c(F)c1 (centres unmarked) [BU, 6-Benzyloxy-1-[(E)-2-(2,6-difluoro-4-methoxy-phenyl)vinyl]-7-methoxy-1,2,3,4-tetrahydroisoquinoline] | 1020 |
| COc1cc2c(cc1OCc1ccccc1)CCNC2/C=C/c1ccc(-n2ccnc2)cc1 (centres unmarked) [DK, (E)-1-(4-(1H-imidazol-1-yl)styryl)-6-(benzyloxy)-7-methoxy-1,2,3,4-tetrahydroisoquinoline] | 107 |
| COc1cc(C)c(/C=C/C2NCCc3cc(OCc4ccccc4)c(OC)cc32)c(C)c1 (centres unmarked) [BA, 6-Benzyloxy-7-methoxy-1-[(E)-2-(4-methoxy-2,6-dimethyl-phenyl)vinyl]-1,2,3,4-tetrahydroisoquinoline] | 497 |
| COc1cc2c(cc1OCc1ccccc1)CCNC2/C=C/c1ccc(N2CCN(C)CC2)cc1 (centres unmarked) [DW, 6-(Benzyloxy)-7-methoxy-1-[(E)-2-[4-(4-methylpiperazin-1-yl)phenyl]ethenyl]-1,2,3,4-tetrahydroisoquinoline] | 1240 |
| COc1cc2occc2cc1/C=C/C1NCCc2cc(OCc3ccccc3)c(OC)cc21 (centres unmarked) [EB, 6-Benzyloxy-7-methoxy-1-[(E)-2-(6-methoxybenzofuran-5-yl)vinyl]-1,2,3,4-tetrahydroisoquinoline] | 300 |
| COc1cc(C)c(/C=C/C2NCCc3cc(OCc4ccccc4)c(OC)cc32)cc1OCCCCN=[N+]=[N-] (centres unmarked) [CD, 1-[(E)-2-[5-(4-azidobutoxy)-4-methoxy-2-methyl-phenyl]vinyl]-6-benzyloxy-7-methoxy-1,2,3,4-tetrahydroisoquinoline] | 88 |
| CCOC(=O)c1coc(-c2ccc(/C=C/C3NCCc4cc(OCc5ccccc5)c(OC)cc43)cc2)n1 (centres unmarked) [EE, Ethyl 2-[4-[(E)-2-(6-benzyloxy-7-methoxy-1,2,3,4-tetrahydroisoquinolin-1-yl)vinyl]phenyl]oxazole-4-carboxylate] | 990 |
| CCCCN1CCc2cc(OC)c(OCc3ccccc3)cc2C1/C=C/c1ccc(OCc2ccccc2)c(OC)c1 (centres unmarked) [Example D, 7-Benzyloxy-1-[(E)-2-(4-benzyloxy-3-methoxy-phenyl)vinyl]-2-butyl-6-methoxy-3,4-dihydro-1H-isoquinoline] | 8920 |
| COc1ccc(OC)c(/C=C/C2NCCc3cc(OCc4ccccc4)c(OC)cc32)c1 (centres unmarked) [EK, 6-Benzyloxy-1-[(E)-2-(2,5-dimethoxyphenyl)vinyl]-7-methoxy-1,2,3,4-tetrahydroisoquinoline] | 380 |
| COc1cc(C)c(/C=C/C2=NCCc3cc(OCc4ccccc4)c(OC)cc32)cc1OCc1ccccc1 [Example AE, 6-benzyloxy-1-[(E)-2-(5-benzyloxy-4-methoxy-2-methyl-phenyl)vinyl]-7-methoxy-3,4-dihydroisoquinoline] | 440 |
| COc1cc(C)c(/C=C/C2c3cc(OC)c(OCc4ccccc4)cc3CCN2C(=O)OC(C)(C)C)cc1OCc1ccccc1 (centres unmarked) [Example Y, tert-butyl 6-benzyloxy-1-[(E)-2-(5-benzyloxy-4-methoxy-2-methyl-phenyl)vinyl]-7-methoxy-3,4-dihydro-1H-isoquinoline-2-carboxylate] | 390 |
| COc1cc2c(cc1OCc1ccccc1)CCNC2/C=C/c1cccc(C(F)(F)F)c1 (centres unmarked) [DB, (E)-6-(benzyloxy)-7-methoxy-1-(3-(trifluoromethyl)styryl)-1,2,3,4-tetrahydroisoquinolin] | 2670 |
| COc1cc2c(cc1OCc1ccccc1)CCNC2/C=C/c1cccc(OCc2ccccc2)c1 (centres unmarked) [BK, 6-Benzyloxy-1-[(E)-2-(3-benzyloxyphenyl)vinyl]-7-methoxy-1,2,3,4-tetrahydroisoquinoline] | 260 |
| COc1cc2c(cc1OCc1ccccc1)CCNC2/C=C/c1ccc2occc2c1 (centres unmarked) [BN, 1-[(E)-2-(benzofuran-5-yl)vinyl]-6-benzyloxy-7-methoxy-1,2,3,4-tetrahydroisoquinoline] | 840 |
| COc1cc2c(cc1OCc1ccccc1)CCNC2/C=C/c1ccc(-c2cccnc2)cc1 (centres unmarked) [DJ] | 393 |
| COc1cc2c(cc1OCc1ccccc1)CCNC2/C=C/c1cc(OCC(C)(C)C)c(OC)cc1C (centres unmarked) [BX, 6-Benzyloxy-1-[(E)-2-[5-(2,2-dimethylpropoxy)-4-methoxy-2-methyl-phenyl]vinyl]-7-methoxy-1,2,3,4-tetrahydroisoquinoline] | 350 |
| COc1cc2c(cc1OCc1ccccc1)CCNC2/C=C/c1cc2c(cc1C)OCO2 (centres unmarked) [BB, 6-Benzyloxy-7-methoxy-1-[(E)-2-(6-methyl-1,3-benzodioxol-5-yl)vinyl]-1,2,3,4-tetrahydroisoquinoline] | 54.4 |
| COc1cc2c(cc1OCc1ccccc1)CCNC2/C=C/c1sccc1C (centres unmarked) [BS, 6-Benzyloxy-7-methoxy-1-[(E)-2-(3-methyl-2-thienyl)vinyl]-1,2,3,4-tetrahydroisoquinoline] | 2870 |
| CCOC(=O)c1coc(-c2cccc(/C=C/C3NCCc4cc(OCc5ccccc5)c(OC)cc43)c2)n1 (centres unmarked) [EF, Ethyl 2-[3-[(E)-2-(6-benzyloxy-7-methoxy-1,2,3,4-tetrahydroisoquinolin-1-yl)vinyl]phenyl]oxazole-4-carboxylate] | 1000 |
| COc1cc2c(cc1OCc1ccccc1)CCNC2/C=C/c1cc(OCC2CCNCC2)c(OC)cc1C (centres unmarked) [BY, 6-Benzyloxy-7-methoxy-1-[(E)-2-[4-methoxy-2-methyl-5-(4-piperidylmethoxy)phenyl]vinyl]-1,2,3,4-tetrahydroisoquinoline] | 397 |
| COc1cc2c(cc1OCc1ccccc1)CCNC2/C=C/c1ccc(N(C)C)cc1C (centres unmarked) [BG, 4-[(E)-2-(6-benzyloxy-7-methoxy-1,2,3,4-tetrahydroisoquinolin-1-yl)vinyl]-N,N,3-trimethyl-aniline] | 1650 |
| CCc1cc(OC)c(OCc2ccccc2)cc1/C=C/C1NCCc2cc(OCc3ccccc3)c(OC)cc21 (centres unmarked) [Example AA, 6-benzyloxy-1-[(E)-2-(5-benzyloxy-2-ethyl-4-methoxy-phenyl)vinyl]-7-methoxy-1,2,3,4-tetrahydroisoquinoline] | 148 |
| COc1ccc(/C=C/C2NCCc3cc(OCc4ccccc4)c(OC)cc32)cn1 (centres unmarked) [AX, 6-Benzyloxy-7-methoxy-1-[(E)-2-(6-methoxy-3-pyridyl)vinyl]-1,2,3,4-tetrahydroisoquinoline] | 3280 |
| COc1cc2c(cc1OCc1ccccc1)CCNC2/C=C/c1ccc(OC)c2occc12 (centres unmarked) [Example AN, 6-Benzyloxy-7-methoxy-1-[(E)-2-(7-methoxybenzofuran-4-yl)vinyl]-1,2,3,4-tetrahydroisoquinoline] | 140 |
